pIC50, pKi: −log10 of the molar value.
How the values were obtained:
[1] = DRUGMATRIX: Phorbol Ester radioligand binding (ligand: [3H] PDBu); format: cell membranes, Mus musculus, ICR, Brain, Membrane; conditions: Not Active = under 50% inhibition at 10 µM
[2] = target: T1, C-C chemokine receptor type 4 (Homo sapiens, UniProt P51679); format: cell membranes, Membrane; conditions: chem-1; also: in other assays of this panel Not Active means under 50% inhibition at 10 µM
T1 sequence (P51679 whole entry): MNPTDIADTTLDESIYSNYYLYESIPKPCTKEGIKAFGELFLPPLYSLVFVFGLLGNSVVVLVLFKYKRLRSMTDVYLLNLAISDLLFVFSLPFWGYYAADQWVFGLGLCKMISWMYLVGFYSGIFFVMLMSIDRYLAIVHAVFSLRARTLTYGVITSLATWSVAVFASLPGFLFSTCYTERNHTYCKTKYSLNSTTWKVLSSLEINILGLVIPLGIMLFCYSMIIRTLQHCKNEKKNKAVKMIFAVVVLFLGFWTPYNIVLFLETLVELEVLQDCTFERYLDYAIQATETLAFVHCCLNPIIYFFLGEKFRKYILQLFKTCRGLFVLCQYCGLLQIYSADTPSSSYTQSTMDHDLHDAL

[3] = DRUGMATRIX: Glutamate, NMDA, Phencyclidine radioligand binding (ligand: [3H] TCP); format: cell membranes, Rattus norvegicus, Wistar, Cerebral cortex, Membrane; conditions: Not Active = under 50% inhibition at 10 µM
[4] = DRUGMATRIX: Sodium/nucleoside co-transporter radioligand binding (ligand: nitrobenzylthioinosine); format: cell membranes, Cavia porcellus, Dunkin-Hartley, Cerebral cortex, Membrane; conditions: Not Active = under 50% inhibition at 10 µM
Melanocortin receptor 5 = Melanocortin receptor 5 (Homo sapiens, UniProt P33032); format: cell membranes, HEK293, Membrane; conditions: for IC50 / Ki: hek293; as to all read-outs here: in other assays of this panel Not Active means under 50% inhibition at 10 µM
Melanocortin receptor 5, sequence (P33032 whole entry): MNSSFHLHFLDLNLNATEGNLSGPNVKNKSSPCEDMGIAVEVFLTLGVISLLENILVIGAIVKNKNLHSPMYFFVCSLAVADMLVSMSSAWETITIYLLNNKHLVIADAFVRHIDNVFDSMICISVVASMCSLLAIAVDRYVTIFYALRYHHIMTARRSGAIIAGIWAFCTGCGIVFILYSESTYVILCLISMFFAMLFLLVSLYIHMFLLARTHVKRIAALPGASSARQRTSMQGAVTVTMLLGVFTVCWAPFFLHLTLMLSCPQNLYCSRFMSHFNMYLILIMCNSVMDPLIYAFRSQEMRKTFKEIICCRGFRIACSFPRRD

[5] = target: Mitogen-activated protein kinase 3 (Homo sapiens, UniProt P27361); experiment: DRUGMATRIX: Protein Serine/Threonine Kinase, ERK1 enzyme inhibition (substrate: Myelin Basic Protein); set-up: species or system Escherichia coli; conditions: Not Active = under 50% inhibition at 10 µM; for pIC50: read-out: IC50
Mitogen-activated protein kinase 3, sequence (P27361 whole entry): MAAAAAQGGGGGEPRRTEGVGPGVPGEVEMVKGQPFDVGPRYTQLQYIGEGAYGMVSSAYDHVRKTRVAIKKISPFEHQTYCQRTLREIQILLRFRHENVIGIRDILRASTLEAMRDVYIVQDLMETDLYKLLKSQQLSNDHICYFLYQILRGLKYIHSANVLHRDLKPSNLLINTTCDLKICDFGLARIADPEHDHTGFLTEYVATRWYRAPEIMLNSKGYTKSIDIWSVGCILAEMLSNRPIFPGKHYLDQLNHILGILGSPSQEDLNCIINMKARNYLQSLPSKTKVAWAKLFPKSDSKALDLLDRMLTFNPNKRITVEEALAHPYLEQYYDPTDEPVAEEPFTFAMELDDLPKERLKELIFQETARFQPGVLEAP

Melanocortin receptor 3 = Melanocortin receptor 3 (Homo sapiens, UniProt P41968); format: cell membranes, Membrane; conditions: hek293; also: in other assays of this panel Not Active means under 50% inhibition at 10 µM
Melanocortin receptor 3, sequence (P41968 whole entry): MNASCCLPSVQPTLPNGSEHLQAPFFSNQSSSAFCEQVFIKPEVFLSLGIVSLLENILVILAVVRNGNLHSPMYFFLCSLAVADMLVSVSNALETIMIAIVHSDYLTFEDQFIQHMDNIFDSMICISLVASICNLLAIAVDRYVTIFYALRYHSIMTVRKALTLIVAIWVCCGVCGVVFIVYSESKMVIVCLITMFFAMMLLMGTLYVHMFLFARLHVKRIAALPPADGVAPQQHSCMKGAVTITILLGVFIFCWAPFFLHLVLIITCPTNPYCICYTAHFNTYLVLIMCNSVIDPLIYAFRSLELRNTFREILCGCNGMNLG

Row | Molecule | IC50 [1] | Ki [1] | IC50 [2] | Ki [2] | IC50 [3] | Ki [3] | IC50 [4] | Ki [4] | IC50 (Melanocortin receptor 5) | Ki (Melanocortin receptor 5) | IC50 [5] | Ki [5] | IC50 (Melanocortin receptor 3) | Ki (Melanocortin receptor 3) | pIC50 (Melanocortin receptor 5; read-out: IC50) | pKi (Melanocortin receptor 5; read-out: Ki) | pIC50 [5]
1 | STANNOUS FLUORIDE | Not Active | Not Active | Not Active | Not Active | Not Active | Not Active | Not Active | Not Active | Not Active | Not Active | Not Active | Not Active | Not Active | Not Active | – | – | –
2 | C[C@@H](O)[C@H]1C(=O)N2C(C(=O)O)=C(S[C@@H]3CN[C@H](C(=O)N(C)C)C3)[C@H](C)[C@H]12 [MEROPENEM] | Not Active | Not Active | Not Active | – | Not Active | Not Active | Not Active | Not Active | Not Active | – | Not Active | – | Not Active | – | – | – | –
3 | COc1ncnc(NS(=O)(=O)c2ccc(N)cc2)c1OC [SULFADOXINE] | Not Active | Not Active | Not Active | – | Not Active | Not Active | Not Active | Not Active | Not Active | – | Not Active | – | Not Active | – | – | – | –
4 | CCCc1nn(C)c2c(=O)[nH]c(-c3cc(S(=O)(=O)N4CCN(C)CC4)ccc3OCC)nc12 | Not Active | Not Active | Not Active | – | Not Active | Not Active | Not Active | Not Active | Not Active | – | Not Active | – | Not Active | – | – | – | –
5 | COc1ccc(/C=C/C(=O)Nc2ccccc2C(=O)O)cc1OC | Not Active | Not Active | Not Active | – | Not Active | Not Active | Not Active | Not Active | Not Active | – | Not Active | – | Not Active | – | – | – | –
6 | CC1=C(CC(=O)O)c2cc(F)ccc2/C1=C\c1ccc(S(C)(=O)=O)cc1 [EXISULIND] | Not Active | Not Active | Not Active | – | Not Active | Not Active | Not Active | Not Active | Not Active | – | Not Active | – | Not Active | – | – | – | –
7 | CN1C2CCCC1CC(NC(=O)c1nn(C)c3ccccc13)C2 (centres undefined) [GRANISETRON] | – | – | Not Active | – | – | – | – | – | Not Active | – | Not Active | – | Not Active | – | – | – | –
8 | Cc1cn([C@H]2C[C@H](N=[N+]=[N-])[C@@H](CO)O2)c(=O)[nH]c1=O [ZIDOVUDINE] | Not Active | Not Active | Not Active | – | Not Active | Not Active | Not Active | Not Active | Not Active | – | Not Active | – | Not Active | – | – | – | –
9 | OCCN1CCN(CCCN2c3ccccc3Sc3ccc(C(F)(F)F)cc32)CC1 [FLUPHENAZINE] | – | – | Not Active | – | – | – | – | – | – | – | Not Active | – | Not Active | – | 5.02 | 5.05 | –
10 | CC(C)(C)NC[C@H](O)COc1nsnc1N1CCOCC1 [TIMOLOL] | Not Active | Not Active | Not Active | – | Not Active | Not Active | Not Active | Not Active | Not Active | – | Not Active | – | Not Active | – | – | – | –
11 | Nc1nc2c(c(=O)[nH]1)N(C=O)C(CNc1ccc(C(=O)N[C@@H](CCC(=O)O)C(=O)O)cc1)CN2 (some centres undefined) [LEUCOVORIN] | Not Active | Not Active | Not Active | – | Not Active | Not Active | Not Active | Not Active | Not Active | – | – | – | Not Active | – | – | – | –
12 | O=c1n(CCCN2CCN(c3cccc(Cl)c3)CC2)nc2ccccn12 [TRAZODONE] | – | – | Not Active | – | – | – | – | – | Not Active | – | Not Active | – | Not Active | – | – | – | –
13 | COc1cc(C(=O)NS(=O)(=O)c2ccccc2C)ccc1Cc1cn(C)c2ccc(NC(=O)OC3CCCC3)cc12 [ZAFIRLUKAST] | Not Active | Not Active | Not Active | – | Not Active | Not Active | Not Active | Not Active | Not Active | – | – | – | Not Active | – | – | – | 5.36
14 | CCOC(N)=O | Not Active | Not Active | Not Active | – | Not Active | Not Active | Not Active | Not Active | Not Active | – | Not Active | – | Not Active | – | – | – | –
15 | CN(CCOc1ccc(CC2SC(=O)NC2=O)cc1)c1ccccn1 (centres undefined) [ROSIGLITAZONE] | Not Active | Not Active | Not Active | – | Not Active | Not Active | Not Active | Not Active | Not Active | – | Not Active | – | Not Active | – | – | – | –
16 | CC(=O)O[C@H]1C[C@@H]2CC[C@@H]3[C@H](CC[C@@]4(C)[C@H]3C[C@H]([N+]3(C)CCCCC3)[C@@H]4OC(C)=O)[C@@]2(C)C[C@@H]1N1CCCCC1.[Br-] [VECURONIUM BROMIDE] | Not Active | Not Active | Not Active | – | Not Active | Not Active | Not Active | Not Active | Not Active | – | Not Active | – | Not Active | – | – | – | –
17 | Nc1ccc(S(=O)(=O)Nc2ncccn2)cc1 [SULFADIAZINE] | Not Active | Not Active | Not Active | – | Not Active | Not Active | Not Active | Not Active | Not Active | – | Not Active | – | Not Active | – | – | – | –
18 | CCS(=O)(=O)CCn1c([N+](=O)[O-])cnc1C [TINIDAZOLE] | Not Active | Not Active | Not Active | – | Not Active | Not Active | Not Active | Not Active | Not Active | – | Not Active | – | Not Active | – | – | – | –
19 | Nc1ccc(S(=O)(=O)Nc2nccs2)cc1 [SULFATHIAZOLE] | Not Active | Not Active | Not Active | – | Not Active | Not Active | Not Active | Not Active | Not Active | – | Not Active | – | Not Active | – | – | – | –
20 | O=C(O)C(Cl)(Cl)Cl [TRICHLOROACETIC ACID] | Not Active | Not Active | Not Active | – | Not Active | Not Active | Not Active | Not Active | Not Active | – | Not Active | – | Not Active | – | – | – | –
21 | C=C(C)[C@H]1Cc2c(ccc3c2O[C@@H]2COc4cc(OC)c(OC)cc4[C@@H]2C3=O)O1 [ROTENONE] | Not Active | Not Active | Not Active | – | Not Active | Not Active | Not Active | Not Active | Not Active | – | Not Active | – | Not Active | – | – | – | –
22 | C#CCN(C)[C@H](C)Cc1ccccc1 [SELEGILINE] | Not Active | Not Active | Not Active | – | Not Active | Not Active | Not Active | Not Active | Not Active | – | Not Active | – | Not Active | – | – | – | –
23 | CC(C)OC(=O)C(C)(C)Oc1ccc(C(=O)c2ccc(Cl)cc2)cc1 [FENOFIBRATE] | – | – | Not Active | – | – | – | – | – | Not Active | – | Not Active | – | Not Active | – | – | – | –
24 | CCN(CC)CC#CCOC(=O)C(O)(c1ccccc1)C1CCCCC1 (centres undefined) [OXYBUTYNIN] | – | – | Not Active | – | – | – | – | – | Not Active | – | Not Active | – | Not Active | – | – | – | –
25 | CC(=O)Nc1nnc(S(N)(=O)=O)s1 [ACETAZOLAMIDE] | – | – | Not Active | – | – | – | – | – | Not Active | – | Not Active | – | Not Active | – | – | – | –
26 | COc1cc(N)nc2[nH]c(-c3ccc(F)cc3)c(-c3ccncc3)c12 | Not Active | Not Active | Not Active | – | Not Active | Not Active | Not Active | Not Active | Not Active | – | Not Active | – | Not Active | – | – | – | –
27 | THIMEROSAL | Not Active | Not Active | Not Active | Not Active | Not Active | Not Active | Not Active | Not Active | Not Active | Not Active | – | – | Not Active | Not Active | – | – | 6.11
28 | CNS(=O)(=O)Cc1ccc2[nH]cc(CCN(C)C)c2c1 | Not Active | Not Active | Not Active | – | Not Active | Not Active | Not Active | Not Active | Not Active | – | Not Active | – | Not Active | – | – | – | –
29 | CC[C@@H](CO)NC(=O)[C@@H]1C=C2c3cccc4c3c(cn4C)C[C@H]2N(C)C1 [METHYSERGIDE] | – | – | Not Active | – | – | – | – | – | Not Active | – | Not Active | – | Not Active | – | – | – | –
30 | O=c1[nH]c2ccccc2n1CCCN1CCC(n2c(=O)[nH]c3cc(Cl)ccc32)CC1 [DOMPERIDONE] | – | – | Not Active | – | – | – | – | – | Not Active | – | Not Active | – | Not Active | – | – | – | –

— ChEMBL document CHEMBL1909046, “DrugMatrix in vitro pharmacology data”
